One test has as its system Staphylococcus aureus. Briefly: Antibacterial activity against Staphylococcus aureus by agar cup-plate assay method. It counts as functional.
In test [1] the test system is Radical scavenging activity. Briefly: Antioxidant activity assessed as DPPH radical scavenging activity at 2500 ug/ml. It counts as functional.
The test system of another test is Escherichia coli. Briefly: Antibacterial activity against Escherichia coli by agar cup-plate assay method. It counts as functional.
The test system of another test is Penicillium chrysogenum. Nature of the test: Antifungal activity against Penicillium chrysogenum by poison plate assay method. It counts as functional, organism-based.
The test system of test [2] is Radical scavenging activity. Nature of the test: Antioxidant activity assessed as DPPH radical scavenging activity at 1000 ug/ml. It counts as functional.
A further test has as its system Aspergillus niger. Briefly: Antifungal activity against Aspergillus niger by poison plate assay method. It counts as functional, organism-based.
In test [3] the test system is Radical scavenging activity. Briefly: Antioxidant activity assessed as DPPH radical scavenging activity at 500 ug/ml. It counts as functional.
Test [4] deals with Radical scavenging activity. Briefly: Antioxidant activity assessed as DPPH radical scavenging activity at 1500 ug/ml. It counts as functional.
For test [5], the system named is Radical scavenging activity. Briefly: Antioxidant activity assessed as DPPH radical scavenging activity at 20 ug/ml. It counts as functional.
Test [6] deals with Radical scavenging activity. Nature of the test: Antioxidant activity assessed as DPPH radical scavenging activity at 50 ug/ml. It counts as functional.
The test system of test [7] is Radical scavenging activity. Nature of the test: Antioxidant activity assessed as DPPH radical scavenging activity at 30 ug/ml. It counts as functional.
The subject of test [8] is Radical scavenging activity. Nature of the test: Antioxidant activity assessed as DPPH radical scavenging activity at 40 ug/ml. It counts as functional.

The structures appear in SMILES notation. Calls of active or inactive are those of the source. The rule behind the calls is not given here.

Turning to `Fc1ccc(/C=C/c2ccc(Cl)cc2Cl)cc1`, in the test on Staphylococcus aureus, the “inhibition zone (IZ)” value came to 18 mm. Further, the Activity in test [1] worked out at 39.3%; in [2], 37.1%; in [3] it was 35.2%; in [4] it was 37.8%. For the same molecule, the “inhibition zone (IZ)” value with Escherichia coli and in the test with Aspergillus niger was “inactive” each time. In addition, in the test with Penicillium chrysogenum, the “inhibition zone (IZ)” value was “Active”.
Take `Fc1ccc(/C=C/c2ccc(Cl)cc2)cc1`: the “inhibition zone (IZ)” value in the test on Staphylococcus aureus stood at 20 mm. Further, the Activity in test [1] amounted to 45.5%; in test [2], 40.8%; in test [3], 37.4%; in [4], 41.6%. Also, the “inhibition zone (IZ)” value in the test with Escherichia coli and in the test with Aspergillus niger was “inactive” in each case. In addition, the “inhibition zone (IZ)” value with Penicillium chrysogenum was “Active”.
In the case of `Fc1ccc(/C=C/c2ccc(F)cc2)cc1`, the “inhibition zone (IZ)” value in the test with Staphylococcus aureus is 24 mm. For the same molecule, the Activity turned out to be 53.8% in test [1], 37.4% in [2], 35.2% in [3] and 44.9% in [4]. Further, the “inhibition zone (IZ)” value in the test with Escherichia coli and with Aspergillus niger was “inactive” in each case. For the same molecule, in the test with Penicillium chrysogenum, the “inhibition zone (IZ)” value is “Active”.
Consider `Clc1cccc(/C=C/c2ccc(Cl)cc2Cl)c1`, for which the “inhibition zone (IZ)” value in the test with Staphylococcus aureus came out at 26 mm. Further, the Activity was 61.4% in test [1], 49.7% in [2], 44.7% in test [3] and 56.1% in test [4]. The “inhibition zone (IZ)” value with Escherichia coli and in the test with Aspergillus niger was “inactive” throughout. Moreover, in the test on Penicillium chrysogenum, the “inhibition zone (IZ)” value was “Active”.
With `Fc1ccc(/C=C/c2ccc(F)cc2F)cc1`, the “inhibition zone (IZ)” value with Staphylococcus aureus is listed as 30 mm. Moreover, the Activity in test [1] was determined as 52.5%; in test [2] it was 48%; in test [3] it was 45.3%; in [4], 50.3%. Besides, the “inhibition zone (IZ)” value with Escherichia coli, in the test with Penicillium chrysogenum and in the test with Aspergillus niger was “inactive” each time.
For the molecule `Fc1ccc(/C=C/c2cccc(Cl)c2)cc1`, in the test with Staphylococcus aureus, the “inhibition zone (IZ)” value worked out at 22 mm. Also, the Activity is 39.8% in [1], 35.6% in test [2], 33% in test [3] and 37.8% in [4]. Besides, the “inhibition zone (IZ)” value with Escherichia coli and in the test on Aspergillus niger was “inactive” in each case. Moreover, the “inhibition zone (IZ)” value in the test with Penicillium chrysogenum is “Active”.
Consider `O=C1O[C@H]([C@@H](O)CO)C(O)=C1O`, for which the Activity was 80.9% in test [5], 94.7% in test [6], 86.7% in test [7] and 92% in [8].
For the molecule `Clc1ccc(/C=C/c2ccc(Cl)cc2Cl)c(Cl)c1`, the “inhibition zone (IZ)” value in the test on Staphylococcus aureus is reported as 24 mm. Moreover, the Activity was 56.4% in test [1], 48.7% in test [2], 44.6% in test [3] and 50.2% in test [4]. The “inhibition zone (IZ)” value with Escherichia coli, in the test on Penicillium chrysogenum and in the test with Aspergillus niger was “inactive” each time.
On to `Cc1ccc(/C=C/c2ccc(Cl)cc2Cl)cc1`, for which the “inhibition zone (IZ)” value in the test with Staphylococcus aureus worked out at 12 mm. In addition, the Activity in test [1] was 39.1%; in test [2] it was 36.4%; in test [3] it was 34.8%; in test [4] it was 37.1%. Also, the “inhibition zone (IZ)” value in the test with Escherichia coli, in the test with Penicillium chrysogenum and in the test on Aspergillus niger was “inactive” each time.
For `Fc1ccc(/C=C/c2cccc(F)c2)cc1`, the “inhibition zone (IZ)” value with Staphylococcus aureus turned out to be 28 mm. Moreover, the Activity in [1] amounted to 49.5%; in test [2] it was 42.1%; in test [3], 40.5%; in test [4], 47.1%. Besides, the “inhibition zone (IZ)” value with Escherichia coli and with Aspergillus niger was “inactive” in each case. Besides, in the test on Penicillium chrysogenum, the “inhibition zone (IZ)” value was “Active”.
Take `Fc1ccc(/C=C/c2ccc(F)c(F)c2)cc1`: the “inhibition zone (IZ)” value with Staphylococcus aureus is reported as 36 mm. In addition, the Activity in [1] worked out at 48.1%; in test [2], 44.6%; in test [3], 43.9%; in test [4], 46.5%. Also, the “inhibition zone (IZ)” value with Escherichia coli, in the test on Penicillium chrysogenum and with Aspergillus niger was “inactive” in each case.
As to `Clc1ccc(/C=C/c2ccc(Cl)c(Cl)c2)c(Cl)c1`, the “inhibition zone (IZ)” value with Staphylococcus aureus is reported as 28 mm. The Activity in [1] turned out to be 58%; in test [2], 49.1%; in [3], 46.5%; in [4], 54.2%. Further, the “inhibition zone (IZ)” value in the test on Escherichia coli and with Aspergillus niger was “inactive” each time. The “inhibition zone (IZ)” value in the test on Penicillium chrysogenum is “Active”.
`Cc1ccc(/C=C/c2ccc(C)cc2)cc1` [(E)-1,2-DI-P-TOLYLETHENE]: the “inhibition zone (IZ)” value with Staphylococcus aureus came to 20 mm. The Activity is 38% in test [1], 35.7% in test [2], 34.9% in [3] and 37.1% in test [4]. The “inhibition zone (IZ)” value in the test on Escherichia coli, in the test with Penicillium chrysogenum and with Aspergillus niger was “inactive” throughout.
On to `CC1(C)S[C@@H]2[C@H](NC(=O)Cc3ccccc3)C(=O)N2[C@H]1C(=O)O` [PENICILLIN G], for which the “inhibition zone (IZ)” value in the test on Staphylococcus aureus came to 40 mm; in the test with Escherichia coli, 17 mm.
`Cc1ccc(/C=C/c2ccc(F)cc2)cc1`: the “inhibition zone (IZ)” value with Staphylococcus aureus, in the test on Escherichia coli, in the test on Penicillium chrysogenum and with Aspergillus niger was “inactive” throughout. Also, the Activity came to 45.4% in [1], 36.4% in test [2], 35.4% in test [3] and 39.5% in test [4].
As for `COC1=CC(=O)C[C@@H](C)[C@]12Oc1c(Cl)c(OC)cc(OC)c1C2=O`, the “inhibition zone (IZ)” value in the test with Penicillium chrysogenum and in the test with Aspergillus niger was “Active” in each case.
Consider `Clc1ccc(/C=C/c2ccc(Cl)cc2Cl)cc1`, for which the “inhibition zone (IZ)” value in the test with Staphylococcus aureus is recorded as 24 mm. For the same molecule, the Activity in [1] was found to be 47.2%; in [2], 43.5%; in test [3], 41.3%; in test [4] it was 45.7%. Also, the “inhibition zone (IZ)” value with Escherichia coli, in the test on Penicillium chrysogenum and in the test with Aspergillus niger was “inactive” throughout.

These data come from ChEMBL document CHEMBL3045182, “Synthesis and biological evaluation of some stilbene-based analogues” (Med Chem Res, 2011).
